Drawing on PMC5972579 (Brain, 2018), this text covers EC50 and IC50 for two compounds.

For test [1], the target named is T1, GPR52 (Homo sapiens, UniProt Q9Y2T5). As to the kind of experiment: intracellular cAMP HTRF assay. It is filed as cell-based. On the technique in general: In TR-FRET formats the signal depends on donor and acceptor labels being close together.
Test [2] addresses T1, GPR52. Kind of test: inhibition of WO-[…])-stimulated cAMP. It is filed as cell-based.

Each structure is given as a SMILES string.

T1 sequence (Q9Y2T5 whole entry): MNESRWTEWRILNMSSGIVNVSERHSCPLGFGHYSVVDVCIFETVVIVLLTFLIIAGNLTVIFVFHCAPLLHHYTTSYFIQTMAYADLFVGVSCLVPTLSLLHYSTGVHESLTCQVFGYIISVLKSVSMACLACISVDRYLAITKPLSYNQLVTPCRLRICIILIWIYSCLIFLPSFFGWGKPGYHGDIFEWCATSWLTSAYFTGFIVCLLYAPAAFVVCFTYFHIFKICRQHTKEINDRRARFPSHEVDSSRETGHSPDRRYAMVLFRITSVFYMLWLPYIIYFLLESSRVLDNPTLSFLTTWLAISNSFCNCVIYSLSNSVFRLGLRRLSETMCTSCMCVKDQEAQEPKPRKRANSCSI

With `Cc1nn(-c2cccc3cc(Cc4cccc(C(F)(F)F)c4)sc23)cc1C(=O)NCCO` [WO-459, N-(2-hydroxyethyl)-3-methyl-1-[2-[3-(trifluoromethyl)benzyl]benzothiophen-7-yl]-1H-pyrazole-4-carboxamide], in test [1], the response was half-maximal at 6 ± 0.7 nM (EC50).

`C=C1C(=O)O[C@@H]2/C=C(\C)CC3C=C(C[C@H](OC(=O)/C(C)=C\C)[C@@H]12)C(=O)O3` (mixture of isomers) [E7, (3S,4R,8R,9E)-10-methyl-5-methylidene-6,14-dioxo-7,13-dioxatricyclo[10.2.1.0⁴,⁸]pentadeca-1(15),9-dien-3-yl (2Z)-2-methylbut-2-enoate]: in test [2], it took 12 ± 0.7 µM to reach half-maximal inhibition (IC50).

By EC50 is commonly meant the midpoint of the concentration-response curve. A higher EC50 goes with a need for much substance. What is called IC50 is the point on the concentration scale where inhibition reaches its midpoint.
